Measured values as given in patent US20120071533A1, “ANTI-FUNGAL FORMULATION” (priority 2009, published 2012).
“And” between values parts separate entries of the source, which are not always exact repeats. Equal values may be shown once. Marks after values point to notes of the source that are not given here. Values belong to the compound of their own block, whether it stands above or below them.

How the values were obtained:
onychomycosis = onychomycosis of the toenail; package insert; cited from earlier work
genus Candida = assay: In vitro antifungal activity (MIC) against the genus Candida; type: cell-based
Description: (§1) The antifungal activities of luliconazole, the Z form of luliconazole, and the SE form of luliconazole were determined. The compounds were tested against the genus Trichophyton and the genus Candida. The MICs against Trichophyton were 15-250 times higher for the Z form and 120-1000 times higher for the S-E form than for luliconazole. The MICs against the genus Candida were 4-500 times higher for the Z form and 8-1000 times higher for the S-E form than for luliconazole.

[1] = tested on: Trichophyton rubrum, Trichophyton mentagrophytes and Trichophyton tonsurans; settings: versus terbinafine, liranaftate, butenafine, amorolfine, ketoconazole, clotrimazole, neticonazole, miconazole, bifonazole; cited from earlier work
[2] = Visual observations of luliconazole solubility samples (crystals / clear solution); type: physicochemical; settings: for concentration at which luliconazole was completely soluble (visual observations): pilot studies
Description: (§2) Typically, luliconazole was weighed into a screw-cap glass vial, the desired solvent was added and the vial was tightly closed. The vials containing suspension were sonicated in an ultra-sonicator bath at 40° C. for 20-30 seconds; the vials were taken out of the bath and swirled to mix the contents. The sonication and swirling steps were repeated 3-4 times till most of the luliconazole was dissolved. […] The samples were stored at RT (21.5° C.,±1.5) and at 4° C. in tightly closed screw-cap glass vials. Sample preparation was conducted in a dark room under yellow light and samples were protected from light during storage.

genus Trichophyton = assay: In vitro antifungal activity (MIC) against the genus Trichophyton; type: cell-based
Description: as §1

[3] = cited from earlier work
[4] = Solubility of luliconazole in solvents and model formulations by UV spectrophotometer at 296 nm, 4° C. and RT (21.5° C., ±1.5); type: physicochemical
Description: as §2
Solubility was determined after 24 hours and again after 3 days at respective storage conditions (RT and 4° C.) using a UV spectrophotometer (Pharma Spec 1700; Shimadzu). Samples for quantitative determination of solubility were drawn from the supernatant area of the suspension (solution) into a 3 ml syringe with a 0.1 μm (pore size) syringe filter (nylon, 13 mm) attached. The desired amount of solution was delivered into a 100 ml volumetric flask that was immediately closed tightly with a stopper and weighed accurately to determine the exact weight of the solution. As ethyl acetate is incompatible with the plastic in the syringe and the housing of the syringe-filter, the ethyl acetate solution was centrifuged at 4200 rpm for 5 minutes and the supernatant solution was drawn for analysis using a glass Pasteur pipette.
The samples taken in volumetric flasks were diluted with methanol to the mark and diluted further before analyzing on the UV spectrophotometer. A five point standard curve of luliconazole (at 20, 10, 6, 4 and 2 μg/ml) in methanol was determined by reading the absorbance at 296 nm. The samples were also read at 296 nm and the concentration of luliconazole was determined from the equation of the standard curve. The solubility of luliconazole in respective solvents and model formulations was then determined as % wt/wt.
Solubility was calculated as % wt/wt from the UV spectrophotometric data read at 296 nm.

[5] = in Benzyl alcohol (theoretical 40%; #853-38-13)
[6] = in Ethanol (theoretical 3.5%; #853-38-15)
[7] = in Ethyl acetate (theoretical 6.5%; #853-38-12)
[8] = in Transcutol P (theoretical 15%; #853-38-17)
[9] = in Acetone (theoretical 18%; #853-38-14)

SMILES: CN(C/C=C/C#CC(C)(C)C)Cc1cccc2ccccc12 [terbinafine]
patients with both mycological cure and clinical cure (onychomycosis): 38%

MIC Range (genus Candida; C. albicans (6 strains)): 30 to 250 ng/mL
MIC Range (genus Candida; C. glabrata (5 strains)): ≦0.0080-0.030 μg/mL
visual observations at 3 days/4° C. [2, 5]: clear solution
visual observations at 3 days/RT [2, 5]: clear solution
visual observations at 3 days/RT [2, 6]: clear solution
visual observations at 3 days/4° C. [2, 7]: clear solution
visual observations at 3 days/RT [2, 7]: clear solution
visual observations at 3 days/4° C. [2, 8]: clear solution
visual observations at 3 days/RT [2, 8]: clear solution
concentration at which luliconazole was completely soluble (visual observations) ([2]; in Transcutol P): ~15%
concentration at which luliconazole was completely soluble (visual observations) ([2]; in benzyl alcohol): ~40%
MIC Range (genus Trichophyton; T. mentagrophytes (4 strains)): 1 to 2 ng/mL
MIC Range (genus Trichophyton; T. rubrum (4 strains)): 0.24 to 0.5 ng/mL
Solubility wt/wt % 4° C. 24 hr [4, 9]: 13.1 % wt/wt
Solubility wt/wt % 4° C. 3 days [4, 9]: 12 % wt/wt and 12.49 % wt/wt
Solubility wt/wt % RT 24 hr ([4]; in Acetone (theoretical 18%; #853-38-14), average duplicate sample preparations): 17.67* % wt/wt
Solubility wt/wt % RT 3 days ([4]; in Benzyl alcohol (50%; saturated solution; #802-24-01)): 43 % wt/wt and 43.44 % wt/wt
Solubility wt/wt % 4° C. 24 hr [4, 5]: 39.87 % wt/wt
Solubility wt/wt % 4° C. 3 days [4, 5]: 40 % wt/wt and 39.18 % wt/wt
Solubility wt/wt % RT 24 hr [4, 5]: 40.19 % wt/wt
Solubility wt/wt % RT 3 days ([4]; in Benzyl alcohol (theoretical 40%; #853-38-13), average duplicate sample preparations): 40 % wt/wt and 39.91* % wt/wt
Solubility wt/wt % 4° C. 24 hr [4, 6]: 2.67 % wt/wt
Solubility wt/wt % 4° C. 3 days [4, 6]: 2.3 % wt/wt
Solubility wt/wt % RT 24 hr [4, 6]: 3.51 % wt/wt
Solubility wt/wt % 4° C. 24 hr [4, 7]: 6.14 % wt/wt
Solubility wt/wt % RT 24 hr ([4]; in Ethyl acetate (theoretical 6.5%; #853-38-12), average duplicate sample preparations): 6.58* % wt/wt
Solubility wt/wt % RT 24 hr ([4]; in Isopropyl myristate (theoretical 5%; #853-38-10)): 0.4 % wt/wt and 0.41 % wt/wt
Solubility wt/wt % RT 24 hr ([4]; in Propylene carbonate (theoretical 10%; #853-38-11)): 8.98 % wt/wt
Solubility wt/wt % 4° C. 3 days [4, 8]: 14.78 % wt/wt
Solubility wt/wt % RT 24 hr [4, 8]: 15.12 % wt/wt
Solubility wt/wt % RT 3 days [4, 8]: 14.89 % wt/wt
SMILES: N#C/C(=C1/SC[C@@H](c2ccc(Cl)cc2Cl)S1)n1ccnc1 [luliconazole, (−)-(E)-[(4R)-(2,4-dichlorophenyl)-1,3-dithiolan-2-ylidene](1H-imidazol-1-yl)acetonitrile]
potency compared with reference drugs [1]: greater potency
solubility in water [3]: practically insoluble in water
